For one assay, the system named is MDA-MB-231. As to the kind of experiment: Clonogenic cell proliferation assay, MDA-MB-231. To be noted: 10 μM; MDA-MB-231, p53 DNA-contact mutation. Type of assay: cell-based, human. The protocol: (§1) For clonogenic assay, cells were plated in triplicate at 1×10^3 cells in 6-well plates. Cells were treated or genetically manipulated as described. After 10 to 14 days, colonies were stained with 1% crystal violet in ethanol and photographed.

In assay [1] the test system is TEAD/YAP dependent transcription. Kind of assay: TEAD4 luciferase reporter assay. The format is cell-based, human. The protocol:
Cells were plated at 2×10^4 cells/well in 24 well plates, unless otherwise stated, 48 hours before collection and treated or genetically manipulated as described. Firefly and renilla luciferase activities were assayed with the dual luciferase assay system (Promega, Madison Wis., USA), as directed, and firefly luciferase activity was normalized to renilla luciferase activity. Firefly and renilla luminescence were measured with the TD-20e Luminometer (Turner).
A general note: Reporter assays use an easily measured gene product as a stand-in for the process of interest.

Another assay concerns SK-BR-3. Kind of assay: Clonogenic cell proliferation assay, SK-BR-3. To be noted: 10 μM; SK-BR-3, p53 conformational mutation. Type of assay: cell-based, human. The protocol:
as §1

Assay [2] has as its system tumor lines with p53 DNA-contact mutations. As to the kind of experiment: Clonogenic cell proliferation assay, p53 DNA-contact mutant tumor lines. The format is cell-based, human. The protocol:
as §1

A further assay deals with ROCK2 (Homo sapiens, UniProt O75116). The settings on record: read-out: reported ICD50 for inhibition of ROCK2; cited from earlier work.
The target of the next assay is ROCK1 (Homo sapiens, UniProt Q13464). To be noted: read-out: reported ICD50 for inhibition of ROCK1; cited from earlier work.
The subject of the next assay is HCC-193. Kind of assay: Clonogenic cell proliferation assay, HCC-193. The format is cell-based, human. To be noted: HCC-193, p53-DNA contact tumor line. The protocol: as §1
A further assay relates to MDA-MB-468. As to the kind of experiment: Clonogenic cell proliferation assay, MDA-MB-468. The settings on record: MDA-MB-468, p53-DNA contact tumor line. The format is cell-based, human. How it is done: as §1
For assay [3], the system named is tumor lines expressing p53 conformational mutations. As to the kind of experiment: Clonogenic cell proliferation assay, p53 conformational mutant tumor lines. The format is cell-based, human. To be noted: for inhibition of proliferation: single agent, concentration not given. How it is done: as §1
The subject of another assay is HCC-1395. Kind of assay: Clonogenic cell proliferation assay, HCC-1395. Type of assay: cell-based, human. The settings on record: HCC-1395, p53 conformational mutant line. The protocol:
as §1

A further assay concerns non-tumorigenic cells. Kind of assay: Proliferation of non-tumorigenic cells. Type of assay: cell-based. To be noted: FIG. 7. How it is done: as §1
The next assay has as its system SK-LMS-1. As to the kind of experiment: Clonogenic cell proliferation assay, SK-LMS-1. Type of assay: cell-based, human. The settings on record: SK-LMS-1, p53 conformational mutation; concentration not given. The protocol: as §1
Assay [4] deals with tumor lines harboring mutations in Hippo pathway core components. Kind of assay: Proliferation of tumor lines with Hippo pathway core component lesions. Type of assay: cell-based. The settings on record: tumor cells with lesions in Hippo pathway core components. The protocol: as §1
In assay [5] the test system is TEAD endogenous target gene expression. Kind of assay: Quantitative real-time PCR of TEAD endogenous target genes. The format is cell-based, human. The settings on record: p53 DNA-contact mutant tumor lines. How it is done:
Total RNA was extracted from cells using QIAshredder (Qiagen, Valencia, Calif., USA) and RNeasy Mini kit (Qiagen) following the manufacturer's instructions. First-strand cDNA synthesis was performed using Superscript II reverse transcriptase (Invitrogen, Carlsbad, Calif., USA) according to the manufacturer's instructions. Quantitative PCR was carried out using the ViiA™ 7 Real-Time PCR System (Life Technologies) using the FastStart SYBR Green Master mix (Roche, 04673492001). Primers were as follows: PCR was performed in 384 well plates using 10 μl volumes under the following conditions: 95° C. for 15 min, followed by 40 cycles of 94° C. for 15 sec, 61° C. for 30 sec, and 72° C. for 30 sec. Specificity was verified by a dissociation curve. Results were analyzed with ViiA7 RUO software (Life Technologies).

For another assay, the system named is MCF10A cells. Kind of assay: Anchorage-independent growth assay in soft agar. The settings on record: FIG. 4C. Type of assay: cell-based. How it is done: Growth in soft agar was determined by seeding 2.5×10^3 MCF10A cells in 1 ml of growth media containing 0.3% agar (BD 214050) on top of 1 ml of 0.48% agar in 35-mm dishes. Cells were fed every 4 days for 3 weeks with 0.2 mL of growth medium. Colonies were stained with 1% crystal violet in ethanol and photographed. Colony density was measured using Image J. Assays were conducted in triplicate.

[6] abbreviates: single agent, concentration not given.

“Also recorded” adds a separate entry of the source.

ROCK1, sequence (Q13464 whole entry): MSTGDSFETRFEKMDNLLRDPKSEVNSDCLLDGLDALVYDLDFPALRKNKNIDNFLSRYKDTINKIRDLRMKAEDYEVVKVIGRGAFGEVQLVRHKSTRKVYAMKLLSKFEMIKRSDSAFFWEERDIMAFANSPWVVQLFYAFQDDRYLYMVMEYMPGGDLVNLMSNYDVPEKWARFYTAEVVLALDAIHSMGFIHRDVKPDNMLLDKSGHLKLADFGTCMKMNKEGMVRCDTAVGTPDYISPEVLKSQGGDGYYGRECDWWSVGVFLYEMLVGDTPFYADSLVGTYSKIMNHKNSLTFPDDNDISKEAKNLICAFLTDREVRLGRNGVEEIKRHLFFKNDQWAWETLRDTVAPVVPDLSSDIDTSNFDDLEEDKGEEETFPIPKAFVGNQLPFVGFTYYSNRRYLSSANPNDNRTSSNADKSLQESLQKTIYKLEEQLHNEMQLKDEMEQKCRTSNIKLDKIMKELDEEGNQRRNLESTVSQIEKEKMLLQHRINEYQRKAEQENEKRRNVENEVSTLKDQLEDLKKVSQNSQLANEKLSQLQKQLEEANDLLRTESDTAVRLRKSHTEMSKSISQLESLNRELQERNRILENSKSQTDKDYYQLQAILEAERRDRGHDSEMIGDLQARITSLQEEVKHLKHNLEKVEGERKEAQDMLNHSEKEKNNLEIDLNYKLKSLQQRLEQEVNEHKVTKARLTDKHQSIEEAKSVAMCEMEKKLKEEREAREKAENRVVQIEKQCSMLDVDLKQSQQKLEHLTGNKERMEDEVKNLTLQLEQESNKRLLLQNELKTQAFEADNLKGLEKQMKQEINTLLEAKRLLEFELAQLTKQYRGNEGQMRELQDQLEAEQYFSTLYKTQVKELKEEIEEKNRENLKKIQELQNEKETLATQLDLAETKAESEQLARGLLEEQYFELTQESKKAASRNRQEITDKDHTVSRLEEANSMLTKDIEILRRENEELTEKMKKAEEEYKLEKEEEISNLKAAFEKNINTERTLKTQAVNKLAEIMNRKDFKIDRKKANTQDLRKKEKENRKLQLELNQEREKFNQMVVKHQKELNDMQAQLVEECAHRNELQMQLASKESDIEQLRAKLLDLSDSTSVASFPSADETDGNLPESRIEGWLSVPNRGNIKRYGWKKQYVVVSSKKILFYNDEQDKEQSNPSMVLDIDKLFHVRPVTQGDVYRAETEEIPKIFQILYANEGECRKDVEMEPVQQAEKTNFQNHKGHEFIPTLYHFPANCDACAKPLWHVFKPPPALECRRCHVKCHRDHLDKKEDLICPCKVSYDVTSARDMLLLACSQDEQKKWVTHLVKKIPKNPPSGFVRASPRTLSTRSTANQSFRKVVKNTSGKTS
ROCK2, sequence (O75116 whole entry): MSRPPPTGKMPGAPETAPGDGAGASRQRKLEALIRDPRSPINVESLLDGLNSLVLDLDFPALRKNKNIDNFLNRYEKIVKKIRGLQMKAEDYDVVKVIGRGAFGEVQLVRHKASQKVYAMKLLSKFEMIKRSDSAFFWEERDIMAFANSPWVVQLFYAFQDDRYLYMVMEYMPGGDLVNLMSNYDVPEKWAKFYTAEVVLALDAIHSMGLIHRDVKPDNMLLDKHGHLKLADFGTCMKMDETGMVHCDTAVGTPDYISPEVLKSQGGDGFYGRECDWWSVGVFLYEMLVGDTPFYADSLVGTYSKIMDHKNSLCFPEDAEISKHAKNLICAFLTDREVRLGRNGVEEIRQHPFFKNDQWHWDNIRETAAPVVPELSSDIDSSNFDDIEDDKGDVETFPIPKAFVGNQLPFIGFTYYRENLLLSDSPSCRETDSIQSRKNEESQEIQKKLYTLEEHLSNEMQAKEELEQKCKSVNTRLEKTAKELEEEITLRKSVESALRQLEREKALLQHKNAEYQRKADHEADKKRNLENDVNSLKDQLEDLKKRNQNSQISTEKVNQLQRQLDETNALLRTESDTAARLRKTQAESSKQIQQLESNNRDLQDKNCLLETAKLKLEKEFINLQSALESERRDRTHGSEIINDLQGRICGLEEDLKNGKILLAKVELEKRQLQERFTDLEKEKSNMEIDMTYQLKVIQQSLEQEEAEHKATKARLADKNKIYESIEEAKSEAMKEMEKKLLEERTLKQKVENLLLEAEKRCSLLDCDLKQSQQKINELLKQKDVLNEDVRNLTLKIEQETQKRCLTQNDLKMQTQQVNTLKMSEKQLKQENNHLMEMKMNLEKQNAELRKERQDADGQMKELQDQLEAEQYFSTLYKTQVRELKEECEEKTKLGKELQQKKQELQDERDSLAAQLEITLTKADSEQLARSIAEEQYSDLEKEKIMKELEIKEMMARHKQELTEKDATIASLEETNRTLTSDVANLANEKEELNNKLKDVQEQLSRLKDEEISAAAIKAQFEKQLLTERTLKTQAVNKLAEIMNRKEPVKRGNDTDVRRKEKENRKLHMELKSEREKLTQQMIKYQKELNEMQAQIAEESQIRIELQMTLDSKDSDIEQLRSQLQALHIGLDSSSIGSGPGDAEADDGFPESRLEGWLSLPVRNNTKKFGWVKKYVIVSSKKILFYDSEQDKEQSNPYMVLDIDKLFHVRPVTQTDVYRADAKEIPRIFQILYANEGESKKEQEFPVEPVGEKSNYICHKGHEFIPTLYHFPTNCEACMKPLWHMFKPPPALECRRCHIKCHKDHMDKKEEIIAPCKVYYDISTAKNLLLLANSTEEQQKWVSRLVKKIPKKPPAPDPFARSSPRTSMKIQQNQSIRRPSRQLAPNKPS

Turning to `O=S(=O)(c1cccc2cnccc12)N1CCCNCC1` [Fasudil], the effect on proliferation entry in the assay with MDA-MB-231 and in the assay with SK-BR-3 was “no effect” throughout. Further, the “inhibition of TEAD/YAP dependent transcription (TEAD reporter activity)” value in [1] (10 μM, MDA-MB-231, FIG. 5A) was “little if any detectable inhibition; also recorded: lack of effect”.
On to `Cc1cncc2cccc(S(=O)(=O)N3CCCN(C(=O)CN)C[C@@H]3C)c12` [Glycyl-H-1152], for which the “inhibition of TEAD/YAP dependent transcription” value in [1] (1 μM, MDA-MB-231, FIG. 5A) is reported as “marked inhibition”. The inhibition of proliferation entry in [2] (1 μM) is “strikingly and specifically inhibited proliferation”. Besides, the “concentration for specific inhibition of proliferation, lower than Y-27632” value in assay [2] (relative to Y-27632) is reported as 10 fold. For the same compound, the IC50 was 11.8 nM at ROCK2 and 6 nM at ROCK1.
In the case of `Oc1nc(-c2ccc(C(F)(F)F)cc2)nc2c1CSCC2` [XAV939], the inhibition of proliferation entry is “able to inhibit the proliferation” in the assay on HCC-193; “able to inhibit the proliferation” in the assay on MDA-MB-468; “antagonize the proliferation” in [2] (setting [6]); “neither XAV939 nor Y-27632 inhibits proliferation” in assay [3]; “had no effect on the proliferation” with HCC-1395; “neither XAV939 nor Y-27632 inhibits proliferation” in the assay on non-tumorigenic cells. Besides, in the assay on SK-LMS-1, the inhibition of proliferation entry is recorded as “had no effect on the proliferation”. Also, in assay [4], the “effect on growth / proliferation” value was “inhibits proliferation”.
As to `C[C@@H](N)[C@H]1CC[C@H](C(=O)Nc2ccncc2)CC1` [Y-27632], the “effect on TEAD endogenous target gene expression” value in [5] is “antagonized”. Moreover, the “effect on TEAD reporter” value in assay [1] (p53 DNA-contact mutant tumor lines, FIG. 4A) is “antagonized”. In addition, the “inhibition of colony formation / proliferation” value in assay [2] (10-50 uM, 3 different p53 contact mutant tumor cells, FIG. 5B) was “almost complete inhibition of colony formation; also recorded: specific inhibition of proliferation”. Besides, the inhibition of proliferation result is reported as “specifically inhibiting the proliferation; also recorded: specifically inhibit the proliferation; also recorded: antagonize the proliferation; also recorded: specifically inhibited proliferation” in assay [2] (setting [6]), “neither XAV939 nor Y-27632 inhibits proliferation” in assay [3] and “neither XAV939 nor Y-27632 inhibits proliferation” with non-tumorigenic cells. In addition, the “effect on transforming ability (colony formation in soft agar)” value in the assay with MCF10A cells (MCF10a cells overexpressing YAP) is “specifically and markedly impaired the transforming ability”; with MCF10A cells (MCF10a cells overexpressing mutant HRAS), “lack of effects”; in the assay on MCF10A cells (MCF10a cells overexpressing p53 R175H (conformational)) it was “lack of effects”; in the assay with MCF10A cells (MCF10a cells overexpressing p53 R273H (DNA contact)), “specifically and markedly impaired the transforming ability”. In assay [3] (even at 100 μM, FIG. 5B), the “inhibition of colony formation” value is given as “no detectable inhibition of colony formation”. Moreover, the “growth inhibitory effects on any of the other tumor cells analyzed” value in assay [3] (tumor cells without p53 DNA contact mutation, FIG. 4B) is “without any obvious growth inhibitory effects”.
As to Verteporfin, the results for the inhibition of proliferation result in assay [2] (setting [6]) and in assay [3] were “inhibit proliferation” and “inhibited the proliferation; also recorded: inhibiting proliferation”, respectively.

Values taken from US11273151B2, “Methods of treating tumors and cancer, and identifying candidate subjects for such treatment” (ICAHN SCHOOL OF MEDICINE AT MOUNT SINAI, priority 2015, dated 2022).
